From patent US9738634B2, “Heterocyclic amide compound and herbicide” (SYNGENTA PARTICIPATIONS AG, priority 2013, dated 2017)

Columns and labels:
Type in all cases: in vivo
Details in all cases: treatment dosage 252 g/ha
[1] = tested on: transplanted rice; assay: Test Example 1: preemergent weed treatment in the submerged state, effect on crop; a: transplanted rice
From the text: (§1) Weedkilling efficacy test on preemergent weed treatment in the submerged state
(§2) Alluvial soil was introduced into 1/10,000 Are Wagner pots, and 4 cm depth submerged conditions were created by addition of water and mixing. Seeds of barnyard grass, bulrush and oval-leafed pondweed were mixed and sown into the aforesaid cups, then 2.5 leaf stage rice seedlings were transplanted. On the sowing day, emulsions of compounds of the present invention prepared according to compounding example 2 were diluted with water to give the specified dosages and applied onto the water surface. The plants were grown after placing the cups in a greenhouse at 25 to 30° C. 3 weeks after the pesticide treatment the effect on each type of plant was investigated on the basis of the following assessment criteria.
(§3) A: barnyard grass, B: bulrush, C: oval-leafed pondweed, D: crabgrass, E: green foxtail, F: barnyard grass, G: wild oat, H: black-grass, I: Italian ryegrass, J: common wind-grass, K: Indian mallow, L: redroot pigweed, M: fig-leafed goosefoot, N: chickweed, O: catchweed, p: birds-eye speedwell, a: transplanted rice, b: directly sown rice, c: corn, d: soybean, e: wheat, f: beet, g: rapeseed
(§4) Further, pesticide dosage (g/ha) indicates the concentration regulated such that treatment was with only the stated number of grams (g), when calculated per hectare (ha).

[2] = tested on: barnyard grass; assay: Test Example 2: weedkilling efficacy, growth period weed treatment in the submerged state; A: barnyard grass
Method: (§5) Weedkilling efficacy test on growth period weed treatment in the submerged state
as §2, with “and the plants were grown by placing in a greenhouse at 25 to 30° C. When the barnyard grass, bulrush and oval-leafed pondweed had reached the 1-2” for “then 2.5”, “stage,” for “stage rice seedlings were transplanted. On the sowing day,”, “surface.” for “surface. The plants were grown after placing the cups in a greenhouse at 25 to 30° C.”, “the” for “the following”, “criteria of test example 1.” for “criteria.”
as §3, §4

[3] = tested on: barnyard grass; assay: Test Example 1: weedkilling efficacy, preemergent weed treatment in the submerged state; A: barnyard grass
From the text: as §1, §2, §3, §4

[4] = tested on: oval-leafed pondweed; assay: Test Example 2: weedkilling efficacy, growth period weed treatment in the submerged state; C: oval-leafed pondweed
Method: as §5
as §2, with “and the plants were grown by placing in a greenhouse at 25 to 30° C. When the barnyard grass, bulrush and oval-leafed pondweed had reached the 1-2” for “then 2.5”, “stage,” for “stage rice seedlings were transplanted. On the sowing day,”, “surface.” for “surface. The plants were grown after placing the cups in a greenhouse at 25 to 30° C.”, “the” for “the following”, “criteria of test example 1.” for “criteria.”
as §3, §4

[5] = tested on: bulrush; assay: Test Example 1: weedkilling efficacy, preemergent weed treatment in the submerged state; B: bulrush
From the text: as §1, §2, §3, §4

[6] = tested on: bulrush; assay: Test Example 2: weedkilling efficacy, growth period weed treatment in the submerged state; B: bulrush
Method: as §5
as §2, with “and the plants were grown by placing in a greenhouse at 25 to 30° C. When the barnyard grass, bulrush and oval-leafed pondweed had reached the 1-2” for “then 2.5”, “stage,” for “stage rice seedlings were transplanted. On the sowing day,”, “surface.” for “surface. The plants were grown after placing the cups in a greenhouse at 25 to 30° C.”, “the” for “the following”, “criteria of test example 1.” for “criteria.”
as §3, §4

[7] = tested on: oval-leafed pondweed; assay: Test Example 1: weedkilling efficacy, preemergent weed treatment in the submerged state; C: oval-leafed pondweed
From the text: as §1, §2, §3, §4

Row | SMILES | a: transplanted rice, effect on crop grade [1] | A (barnyard grass) weedkilling efficacy grade [2] | A: barnyard grass, weed kill grade [3] | C (oval-leafed pondweed) weedkilling efficacy grade [4] | B: bulrush, weed kill grade [5] | B (bulrush) weedkilling efficacy grade [6] | C: oval-leafed pondweed, weed kill grade [7]
1 | CC(C)(C(=O)Nc1cccc(C(F)(F)F)n1)N1COCN(c2ccccc2)C1=O [A-2-44] | 0 (weed kill ratio 5% or less (practically no effect)) | 3 (weed kill ratio 40% or more, less than 70%) | 5 (weed kill ratio 90% or more, (practically complete withering)) | 1 (weed kill ratio 5% or more, less than 20%) | 5 (weed kill ratio 90% or more, (practically complete withering)) | 5 (weed kill ratio 90% or more, (practically complete withering)) | 4 (weed kill ratio 70% or more, less than 90%)
2 | CC(C)(C(=O)Nc1cc(C2CC2)ccn1)N1COCN(c2ccccc2)C1=O [A-2-45] | 0 (weed kill ratio 5% or less (practically no effect)) | 4 (weed kill ratio 70% or more, less than 90%) | 5 (weed kill ratio 90% or more, (practically complete withering)) | 3 (weed kill ratio 40% or more, less than 70%) | 5 (weed kill ratio 90% or more, (practically complete withering)) | 4 (weed kill ratio 70% or more, less than 90%) | 5 (weed kill ratio 90% or more, (practically complete withering))
3 | CC(C)(C(=O)Nc1cccc(C2CC2)n1)N1COCN(c2ccccc2)C1=O [A-2-46] | 1 (weed kill ratio 5% or more, less than 20%) | 4 (weed kill ratio 70% or more, less than 90%) | 5 (weed kill ratio 90% or more, (practically complete withering)) | 0 (weed kill ratio 5% or less (practically no effect)) | 4 (weed kill ratio 70% or more, less than 90%) | 2 (weed kill ratio 20% or more, less than 40%) | 3 (weed kill ratio 40% or more, less than 70%)
4 | CC(C)(C(=O)Nc1cc(C#N)ccn1)N1COCN(c2ccccc2)C1=O [A-2-48] | 0 (weed kill ratio 5% or less (practically no effect)) | 4 (weed kill ratio 70% or more, less than 90%) | 5 (weed kill ratio 90% or more, (practically complete withering)) | 5 (weed kill ratio 90% or more, (practically complete withering)) | 5 (weed kill ratio 90% or more, (practically complete withering)) | 5 (weed kill ratio 90% or more, (practically complete withering)) | 5 (weed kill ratio 90% or more, (practically complete withering))
5 | CC(C)(C(=O)Nc1cc(-c2ccccc2)ccn1)N1COCN(c2ccccc2)C1=O [A-2-49] | 1 (weed kill ratio 5% or more, less than 20%) | 4 (weed kill ratio 70% or more, less than 90%) | 5 (weed kill ratio 90% or more, (practically complete withering)) | 4 (weed kill ratio 70% or more, less than 90%) | 5 (weed kill ratio 90% or more, (practically complete withering)) | 4 (weed kill ratio 70% or more, less than 90%) | 5 (weed kill ratio 90% or more, (practically complete withering))
6 | CC(C)(C(=O)Nc1cccc(-c2ccccc2)n1)N1COCN(c2ccccc2)C1=O [A-2-50] | 0 (weed kill ratio 5% or less (practically no effect)) | 4 (weed kill ratio 70% or more, less than 90%) | 5 (weed kill ratio 90% or more, (practically complete withering)) | 3 (weed kill ratio 40% or more, less than 70%) | 5 (weed kill ratio 90% or more, (practically complete withering)) | 4 (weed kill ratio 70% or more, less than 90%) | 5 (weed kill ratio 90% or more, (practically complete withering))
